Data: US10392412B2, “Platinum anticancer agents” (THE REGENTS OF THE UNIVERSITY OF CALIFORNIA, priority 2015, dated 2019)
Entries after “also recorded” stand apart in the source; their conditions may differ. Where two headings read alike, the source gives them in different places. Marks after values point to notes of the source that are not given here.

How the values were obtained:
MOLT-4 cells = conditions: MOLT-4, Leukemia
Source text: (§1) The methods that were used by the DTP were described on the DTP website: (https://dtp.nci.nih.gov/discovery_development/nci-60/methodology.htm).

IGROV1 cells = conditions: IGROV1, Ovarian
Source text: as §1

OVCAR-3 cells = conditions: OVCAR-3, Ovarian
Source text: as §1

SN12C cells = conditions: Renal
Source text: as §1

RXF 393 cells = conditions: RXF 393, Renal
Source text: as §1

MDA-MB-435 cells = conditions: MDA-MB-435, Melanoma
Source text: as §1

SK-MEL-28 cells = conditions: SK-MEL-28, Melanoma
Source text: as §1

DU-145 cells = conditions: DU-145, Prostate
Source text: as §1

MALME-3M cells = conditions: Melanoma
Source text: as §1

U251 cells [1] = conditions: U251, Central Nervous System
Source text: as §1

UO-31 cells = conditions: UO-31, Renal
Source text: as §1

T-47D cells = conditions: Breast
Source text: as §1

HS 578T cells = conditions: Breast
Source text: as §1

SF-295 cells = conditions: SF-295, Central Nervous System
Source text: as §1

EKVX cells = conditions: Non-Small Cell Lung
Source text: as §1

SF-539 cells = conditions: SF-539, Central Nervous System
Source text: as §1

U-2 OS cells = test: Cytotoxicity CellTiter-Glo; type: cell-based, human
SHEP cells = test: Cytotoxicity CellTiter-Glo; type: cell-based, human
MG-63 cells = test: Cytotoxicity CellTiter-Glo; type: cell-based, human; conditions: MG-63, Osteosarcoma
HL-60(TB) cells = conditions: Leukemia
[2] = test system: SK-N-DZ neuroblastoma xenografts; test: SK-N-DZ neuroblastoma xenograft in nu/nu mice; type: in vivo, mouse; conditions: for tumor volume / tumor growth: SKNDZ neuroblastoma xenograft, 5 mg/kg i.v. once a week for 4 weeks
Protocol: The xenograft studies were performed by subcutaneous injection of SK-N-DZ (neuroblastoma, 30×10^6 cells/animal) and RMS13 (rhabdomyosarcoma, 20×10^6 cells/animal) in right flank of the male Charles River Laboratories nu/nu mice (7-8 weeks old, weight ˜20 g). Mice were treated by intravenous tail vein injection once a week for 4 weeks. The tumor sizes and body weights were monitored twice a week. Tumor volumes were calculated according to the following formula: volume=height×[…]×length×0.5236.

U251 cells [3] = test: Cytotoxicity CellTiter-Glo; type: cell-based, human
A673 cells = test: Cytotoxicity CellTiter-Glo; type: cell-based, human
OVCAR2 cells = test: Cytotoxicity CellTiter-Glo; type: cell-based, human; conditions: read-out: IC50 (50% growth inhibition); OVCAR2, Ovary; 72 hours
A204 cells = test: Cytotoxicity CellTiter-Glo; type: cell-based, human; conditions: A204, Rhabdomyosarcoma
[4] = Maximum tolerated dose study: blood chemistry test (Table 7)
Protocol: The mice used in MTD were given standard chow devoid of added folic acid (low folate diet) (See, Leamon C P et al., J. Pharmacol. Exp. Ther. 327: 918-925). […] Therefore we also designed a MTD study in mice treated with low folate diet. Food consumption on the day before injection (Day −1) was recorded and then it was monitored every other day. […] Blood for clinical chemistry was collected if possible. Liver, kidney and bone marrow were collected. One side of each tissue (except bone marrow) will be fixed in 4-10% formalin for future histology analysis, and the rest of tissue will be cut into pieces, snap frozen, and stored at −80° C. until analysis. Blood samples for clinical chemistry were centrifuged at 8000 rpm for 10 min at 4° C. within 1 hour of collection. Plasma was collected into 1.5 mL eppendorf tubes and stored at −80° C. until analysis. The measured parameters were alanine transaminase (ALT), aspartate transaminase (AST), alkaline phosphatase (ALP), total bilirubin, glucose, blood urea nitrogen (BUN), creatinine, and electrolytes. All experiments were housed in a virus-free, temperature controlled facility on a 12-h light-dark cycle.

[5] = read-out: IC50 (50% growth inhibition), 72 hours
[6] = 7.5 mpk i.v. once a week, listed as AT-69

## [Pt(DMSO)methotrexate(Cl)] [SM-69]
MOLT-4 cells
  Log10GI50: −5.30 M
IGROV1 cells
  Log10GI50: −4.11 M
OVCAR-3 cells
  Log10GI50: −4.15 M
SN12C cells
  Log10GI50: −5.29 M
RXF 393 cells
  Log10GI50: −4.63 M
MDA-MB-435 cells
  Log10GI50: −5.36 M
SK-MEL-28 cells
  Log10GI50: −4.00 M
DU-145 cells
  Log10GI50: −5.18 M
MALME-3M cells
  Log10GI50: −4.71 M
U251 cells [1]
  Log10GI50: −5.43 M
UO-31 cells
  Log10GI50: −4.92 M
T-47D cells
  Log10GI50: −4.08 M
HS 578T cells
  Log10GI50: −4.00 M
SF-295 cells
  Log10GI50: −5.46 M
EKVX cells
  Log10GI50: −4.16 M
SF-539 cells
  Log10GI50: −5.19 M
U-2 OS cells; Osteosarcoma
  GI50: 18000 ± 15000 nM
U-2 OS cells; read-out: IC50 (50% growth inhibition), Osteosarcoma, 72 hours
  IC50: 18000 ± 15000 nM
SHEP cells; Neuroblastoma
  GI50: 2700 ± 2300 nM
SHEP cells; read-out: IC50 (50% growth inhibition), Neuroblastoma, 72 hours
  IC50: 2700 ± 2300 nM
MG-63 cells
  GI50: 2400 ± 1400 nM
MG-63 cells; [5]
  IC50: 2400 ± 1400 nM
HL-60(TB) cells
  Log10GI50: −5.46 M
[2]; 5 mg/kg
  tumor volume / tumor growth: significantly different compared with other groups; also recorded: significantly lower compared with SM-70
[2]; listed as AT-69, 5 mg/kg
  tumor volume / tumor growth: significantly reduces NB tumor growth; also recorded: inhibited tumor growth; also recorded: more potent than cisplatin
[2]; SKNDZ xenograft model, 5 mpk, listed as AT-69, 5 mg/kg
  survival: significant increase; also recorded: significantly increase survival; also recorded: significant difference in survival; also recorded: increase survival rate
U251 cells [3]; read-out: IC50 (50% growth inhibition), U251, Brain, 72 hours
  IC50: 4000 ± 4500 nM
U251 cells [3]; read-out: IC50 ± S.D. (50% growth inhibition), U251, Brain - High grade, + 1 mM Folic Acid
  IC50: 6100 ± 290 nM
U251 cells [3]; read-out: IC50 ± S.D. (50% growth inhibition), U251, Brain - High grade, two independent experiments
  IC50: 250 ± 20 nM
A673 cells; A673, Ewing's sarcoma
  GI50: 300 ± 300 nM
A673 cells; read-out: IC50 (50% growth inhibition), A673, Ewing's Sarcoma, 72 hours
  IC50: 300 ± 300 nM
OVCAR2 cells
  IC50: 3300 ± 1600 nM
A204 cells
  GI50: 3900 ± 3000 nM
A204 cells; [5]
  IC50: 3900 ± 3000 nM
[4]; 2.5 mpk i.v. once a week
  Glucose: 80.25
  Na:K: 33.50
  alanine transaminase, ALT (GPT): 52.75
  alkaline phosphatase (ALP): 99.00
  aspartate transaminase, AST (GOT): 252.25
  blood urea nitrogen (BUN): 41.73
  creatinine (CRE): <0.2
  total bilirubin (TBIL): 0.15
[4]; 5 mpk i.v. once a week
  Glucose: 73.00
  Na:K: 33.25
  alanine transaminase, ALT (GPT): 83.75
  alkaline phosphatase (ALP): 117.25
  aspartate transaminase, AST (GOT): 447.25
  blood urea nitrogen (BUN): 65.63
  creatinine (CRE): <0.2
  total bilirubin (TBIL): 0.53
[4]; 7.5 mpk i.v. once a week
  Glucose: 40.67*
  Na:K: 31.67
  alanine transaminase, ALT (GPT): 258.33*
  alkaline phosphatase (ALP): 140.33*
  aspartate transaminase, AST (GOT): 573.67
  blood urea nitrogen (BUN): did not observe a significant difference
  creatinine (CRE): did not observe a significant difference
  total bilirubin (TBIL): 0.40
[4]; [6]
  blood urea nitrogen (BUN): 65.40
  creatinine (CRE): <0.2
